According to US9370523B2, “Method for diagnosing or prediagnosing a beta-amyloidopathy or an alpha-synucleopathy” (Immungenetics AG, priority 2010, dated 2016):

Tested on: ABCC1 transporter
Assay: Activation of the ABCC1 transporter

CCSc1ccc2c(c1)N(CCCN1CCN(C)CC1)c1ccccc1S2 [thiethylperazine, 2-(ethylthio)-10-[3-(4-methylpiperazin-1-yl)propyl]-10H-phenothiazine]
activation of the ABCC1 transporter, in words: particularly efficient activator of the ABCC1 transporter
